Test results reported in patent publication US20090181932A1, “COMPOSITIONS CONTAINING O-SULFATE AND O-PHOSPHATE CONTAINING ARYL SULFONAMIDE DERIVATIVES USEFUL AS beta-AMYLOID INHIBITORS” (Wyeth, priority 2008, published 2009).
Structures can show the parent of a compound that is named as a salt. Where two headings read alike, the source gives them in different places.

Tests used:
Type in all cases: cell-based
[1] = system: Aβ42 generation from APP in CHO cells stably expressing hAPP-REPNL751; experiment: Aβ-lowering electrochemiluminescent (MSD ECL) assay of conditioned media, Aβ42
Experimental: (§1) The activity of compounds in lowering the generation of Aβ40 and Aβ42, the most abundant forms of beta amyloid, from APP (amyloid precursor protein) was measured in an electrochemiluminescent (ECL) assay of conditioned media from chinese hamster ovary (CHO) cells stably expressing the human amyloid precursor protein (APP) reporter construct, hAPP-REPNL751 [Sughir, R. et al.; J. Biolog. Chem. (1992) 267: 25602-25608]. Aβ peptides were secreted at high levels into cell culture media by cells carrying the human APP transgene; compounds were tested for their capacity to modulate this production. The Aβ peptide in the conditioned medium was quantitated by a sandwich immunoassay with the Meso Scale Discovery® (MSD®) ECL detection system. Cell metabolism was measured using MTS salt kit (containing a tetrazolium compound 3-(4,5-dimethylthiazol-2-yl)-5-(3-carboxymethoxyphenyl)-2-(4-sulfophenyl)-2H-tetrazolium, inner salt; MTS(a) which measures the mitochondrial activity of cells by the bioreduction of Owen's reagent). This assay consists of the following protocol: • 1. Aβ-Lowering Assay. • a. hAPP-REPNL751 CHO cells were seeded into 96 well plates and incubated until about 60-70% confluence. • b. Medium was removed, cells were washed, and fresh serum-free medium (Ultraculture) was put on cells. • c. Compounds were diluted and then added to the cell medium. • d. Cells were incubated, with compounds, for indicated times. • e. Streptavidin coated Meso Scale Discover (MSD) plates (MSD standard Multi-Array™ 96 plate, cat. #P11SA-1) were washed 3× with TTBS (Tris-buffered saline, the Tween® 20 reagent). • f. 20 μL conditioned medium were removed from the cells, and added to the TTBS prewashed MSD® plates. • g. Standard curve dilutions of synthetic Aβ40 and Aβ42 were prepared and added to the MSD® plates. • h. A reagent mix was prepared in 1% MSD® Blocker A (appropriate concentration of biotinylated 6E10 antibody, detection antibodies to Aβ40, Aβ42, and MSD ruthinylated tag antibody). • i. 20 μL reagent mix was distributed to sample plate. • j. Plates were incubated with shaking overnight at 4° C. • k. Plates were washed 3× with TTBS. • l. 150 μL read buffer was added per well (MSD Read Buffer T, cat#R92TC-2, made 1× with distilled water). • m. Plates were read in MSD plate reader within 2 hours. • 2. MTS Assay: • a. Cells were seeded into 96 well plates and incubated until about 60-70% confluence. • b. Medium was removed, cells were washed, and fresh serum-free medium (Ultraculture) was put on cells. • c. Compounds were diluted and then added to the cell medium. • d. Cells were incubated, with compounds, for indicated times. • e. Using a robot, conditioned medium was removed from the cells, and transferred to a TTBS prewashed MSD plate. • f. Cells were washed 2× in phosphate buffered saline (PBS) and an MTS solution was plated onto the cells. After 1 hour, they were read on a plate reader at 560 nm to determine metabolic activity. • 3. Analysis of Results. • Assays were accepted or rejected based upon specific performance criteria, including regression coefficient of standard curve, adequate signal to noise ratio, sample signals lying within the range of the standard curve, etc. The specific parameters were established for each tissue type prior to performing an assay, and were included in the full analytical procedure. • Plate data from both assays (MTS and MSD ELISA) were transferred into a Microsoft Excel® spreadsheet to determine the toxicity, and inhibition caused by the compounds. Standard curves of Aβ were generated using LSW toolbar Hill slope model 42, with 1/y weighting (general sigmoidal curve with Hill slope, a to d; y=(a−d)/(1+(x/c)̂b)+d). […]

[2] = system: Aβ40 generation from APP in CHO cells stably expressing hAPP-REPNL751; experiment: Aβ-lowering electrochemiluminescent (MSD ECL) assay of conditioned media, Aβ40
Experimental: as §1

[3] = system: S3 (γ-secretase like) processing of Notch (Mouse Notch1 with deleted extracellular domain); experiment: Whole cell functional Notch assay (HES1-SEAP reporter, P8H6 CHO-K1 cells); details: Notch assay reference compounds, read-out: EC50 (Notch induced SEAP levels)
Text: The activity of compounds in cleaving Notch can be measured in a whole cell functional Notch assay. This is an assay to determine the effects of compounds on the S3 (γ-secretase like) processing of Notch. […] SEAP transactivation is then detected by luminescent assay. The assay consists of the following protocol: • 1. Materials and Methods: • (a) Materials: The P8H6 inducible stable cell line was derived from T-REx™ CHO-K1, stably expressing Tet repressor, Notch (pZX1) and HES1-SEAP (pZX2) reporter constructs. A Wallace 1450® Victor Luminescence Counter is used to measure luminescent signal. […] For vehicle samples, the same volume of 0.2% DMSO/25 mM HEPES buffer was added. • Cells were incubated at 37° C., 5% CO2 for 48 hours. • SEAP levels in the conditioned media were assessed using the Clontech GreatEscAPe™ SEAP Chemiluminescence detection kit according to the manufacturer's instruction. […] After cooling, assay buffer was added, and the sample was incubated with the CSPD® substrate. • Luminescence was measured in a Wallace 1450 Victor luminescence counter. • 2. […] EC50 was calculated by […] using sigmoidal inhibition from B0 to nsb model (model 59). […] Inhibition of Notch processing was measured using the stable transfection reporter assay. […]

[4] = CHO, reference standards of the beta amyloid assay, read-out: EC50αβ42
[5] = electrochemiluminescent assay, hAPP-REPNL751 CHO cells, read-out: C42: EC50 for inhibition of Aβ42
[6] = electrochemiluminescent assay, hAPP-REPNL751 CHO cells, read-out: C40: EC50 for inhibition of Aβ40

| Compound | EC50 [1, 5] | EC50 [2, 6] | other results |
| --- | --- | --- | --- |
| CC[C@H](CC(F)(F)F)[C@@H](CO)NS(=O)(=O)c1ccc(Cl)s1 [5-chloro-N-[(1S,2R)-2-ethyl-4,4,4-trifluoro-1-(hydroxymethyl)butyl]thiophene-2-sulfonamide, reference compound] | – | – | EC50 [1, 4]: 5 nM; EC50 ([2]; CHO, reference standards of the beta amyloid assay, read-out: EC50αβ40): 6 nM |
| CC(C)[C@H](O)C(=O)N[C@@H](C)C(=O)N[C@@H]1C(=O)N(C)CCc2ccccc21 [(2S)-2-hydroxy-3-methyl-N-((1S)-1-methyl-2-{[(1S)-3-methyl-2-oxo-2,3,4,5-tetrahydro-1H-3-benzazepin-1-yl]amino}-2-oxoethyl)butanamide, reference compound] | – | – | EC50 [3]: 68 nM; EC50 [1, 4]: 79 nM |
| O=S(=O)(O)OC[C@@H](NS(=O)(=O)c1ccc(Cl)s1)C(C(F)(F)F)C(F)(F)F [Example 1, (2S)-2-{[(5-chloro-2-thienyl)sulfonyl]amino}-4,4,4-trifluoro-3-(trifluoromethyl)butyl Hydrogen Sulfate, Sodium Salt] | 445 nM | 447 nM | – |
| CC[C@@H](C)[C@@H](COS(=O)(=O)O)NS(=O)(=O)c1ccc(Cl)s1 [Example 2, (2S,3R)-2-{[(5-chloro-2-thienyl)sulfonyl]amino}-3-methylpentyl Hydrogen Sulfate, Sodium Salt] | 15000 nM | 15000 nM | – |
| CCC(CC)[C@@H](COS(=O)(=O)O)NS(=O)(=O)c1ccc(Cl)s1 [Example 3, (2S)-2-{[(5-chloro-2-thienyl)sulfonyl]amino}-3-ethylpentyl Hydrogen Sulfate, Sodium Salt] | 234 nM | 243 nM | – |
| CC[C@H](C)[C@@H](COS(=O)(=O)O)NS(=O)(=O)c1ccc(Cl)cc1 [Example 4, (2S,3S)-2-{[(4-chlorophenyl)sulfonyl]amino}-3-methylpentyl Hydrogen Sulfate, Sodium Salt] | 15000 nM | 15000 nM | – |
| O=S(=O)(O)OC[C@@H](NS(=O)(=O)c1ccc(Cl)cc1)C(C(F)(F)F)C(F)(F)F [Example 5] | – | – | EC50 ([1]; CHO, read-out: C42: EC50 for inhibition of Aβ42): 4150 nM; EC50 ([2]; CHO, read-out: C40: EC50 for inhibition of Aβ40): 4030 nM |
| O=S(=O)(O)OC[C@@H](NS(=O)(=O)c1ccc(Cl)s1)[C@@H](c1cc(F)cc(F)c1)C(F)(F)F [Example 6, (2S,3R)-2-{[(5-chloro-2-thienyl)sulfonyl]amino}-3-(3,5-difluorophenyl)-4,4,4-trifluorobutyl Hydrogen Sulfate, Sodium Salt] | 1290 nM | 1740 nM | – |
